Results from patent US9801880B2, “Use of kinase inhibitors” (BerGenBio AS, priority 2013, dated 2017).
pIC50: −log10 of the molar value.

Key:
TEK(R849W) = biological target: T1, TEK(R849W) (Homo sapiens, UniProt Q02763, R849W); experiment: KinaseProfiler kinase activity assay; assay type: biochemical; conditions: ATP at Km
T1 construct: purchased EMD Millipore Corp. (KinaseProfiler service)
Source text: (§1) A summary is provided below.

TEK(Y897S) = biological target: T2, TEK(Y897S) (Homo sapiens, UniProt Q02763, Y897S); experiment: KinaseProfiler kinase activity assay; assay type: biochemical; conditions: ATP at Km
T2 construct: purchased EMD Millipore Corp. (KinaseProfiler service)
Source text: as §1

Abl = Abl (Homo sapiens, UniProt P00519); experiment: KinaseProfiler kinase activity assay; assay type: biochemical; conditions: Abl wild-type; ATP at Km
Source text: Detailed assay methodologies can be found in the relevant references cited herein, or in the KinaseProfiler Service Assay Protocols (v54, 2011) available from EMD Millipore (www.emdmillipore.com), or from the KinomeScan website (www.kinomescan.com), as appropriate. (For a more detailed description of KINOMEscan's assay technology, see: Fabian et al. A small molecule-kinase interaction map for clinical kinase inhibitors. Nat. Biotechnol. 23, 329-336 (2005)). A summary is provided below.
(§2) KinaseProfiler™ assays (EMD Millipore Corp. Billerica, Mass., USA) are […] with purified or partially-purified human kinases. Most of the KinaseProfiler™ assays are conducted in 20 mM MOPS, 1 mM EDTA, 0.01% Brij-35, 5% Glycerol, 0.1% b-mercaptoethanol, 1 mg/mL BSA. The assay involves the transfer of ^32P from γ-^32P-ATP to the target peptide, followed by washing and trapping of the labeled peptide on a filter. The concentration of γ-^32P-ATP used was at the established Km for ATP.

[1] = test system: Flt3 mutations D835H, D835Y, K663Q, and A829P; experiment: Inhibition of Flt3 mutations (biochemical assays, format not stated)
Source text: as §1

[2] = test system: Ba/F3 cells expressing the non-mutated Bcr-Abl1 kinase; experiment: WST-1 cell viability, Ba/F3 cells expressing Bcr-Abl1; assay type: cell-based; conditions: Mus musculus, BaF3, 48 hours, serum free
Protocol: Ba/F3 cells either stably overexpressing Bcr-Abl1 (A) or the mutant Bcr-Abl1 T315I (B) were cultured overnight in serum free RPMI-1640 media supplemented with 2 mM glutamine, 100 U/mL penicillin and 100 μg/mL streptomycin (Sigma-Aldrich). The following day, cells were plated in a 96-well plate with each well containing 2000 cells in a volume of 100 μl serum free RMPI media. […] The 96 well plates were incubated for 48 hours, and cell viability was measured in a WST-1 assay (Roche). Briefly, 5 μl WST-1 solution was added to each well and the 96-well plate was incubated for another 2 hours. The readout was performed in an ELSA reader at 480 nm. (measure)/620 nm (reference). Subsequent data analysis was performed with Microsoft Excel 2003 and GraphPad Prism 4.0.

[3] = test system: Ba/F3 cells (WT, FLT3 WT, FLT3-ITD, D835Y); experiment: Annexin V-PI apoptosis/cell death assay, four Ba/F3 cell lines; assay type: cell-based, Murine
Source text: Murine pro-B lymphocyte line Ba/F3 wild type (Ba/F3 WT), and Ba/F3 lines stably transduced with expression vectors that encoded wild-type human FLT3 (Ba/F3 FLT3 WT cells) or human FLT3 containing an ITD mutation (Ba/F3-ITD cells) or D835Y (Ba/F3 D835Y cells) point mutations, which lead to constitutively functional activation of the protein, were obtained from Bjørn Tore Gjertsen (Department of Clinical Science, Hematology Section, University of Bergen, Bergen, Norway). Ba/F3 WT, Ba/F3 FLT3 WT and Ba/F3 835Y cells were maintained in RPMI-1640 medium, containing 10% fetal calf serum (FCS, HyClone, Logan, UT), 2 mM L-glutamine and 50 U/mL penicillin-streptomycin (Sigma-Aldrich, Inc, St Louis, Mo., USA), and 10% WEHI-3B conditioned medium as a source of murine interleukin-3 (mIL-3). […]
Quantification of apoptotic and necrotic cells was determined by measuring externalization of phosphatidylserine with annexin V, conjugated to Alexa® Fluor 647 (Invitrogen, Molecular Probes, OR, USA) and using propidium iodide (PI; Sigma-Aldrich) as a dead-cell counterstain. […] After drug treatment cells were stained according the manufacturer's protocol, and subsequently analysed on an Accuri C6 flow cytometer (Becton Dickinson Immunocytometry Systems, San Jose, Calif., USA). […] The percent viable cells are expressed as percentage of untreated cells, performed in a single experiment.

[4] = test system: Ba/F3 cells (WT, FLT3 WT, FLT3 ITD, FLT3 D835Y); experiment: WST-1 and 3H-Thymidine incorporation cell proliferation assays, all Ba/F3 lines; assay type: cell-based, Murine; conditions: by 3 μM; regardless of cell line
Source text: Murine pro-B lymphocyte line Ba/F3 wild type (Ba/F3 WT), and Ba/F3 lines stably transduced with expression vectors that encoded wild-type human FLT3 (Ba/F3 FLT3 WT cells) or human FLT3 containing an ITD mutation (Ba/F3-ITD cells) or D835Y (Ba/F3 D835Y cells) point mutations, which lead to constitutively functional activation of the protein, were obtained from Bjørn Tore Gjertsen (Department of Clinical Science, Hematology Section, University of Bergen, Bergen, Norway). […]
Proliferation of cells was assessed using the tetrazolium salt WST-1 that is cleaved to chromogenic formazan dye by mitochondrial dehydrogenases in viable cells. […] The absorbance of the samples was measured by Spectramax Plus 384 Spectrophotometer (Molecular Devices Corp., Sunnyvale, Calif., USA) and the percentage of proliferation was calculated by using the following formula: (Arbitrary units (AU) of treated sample−AU of background control)/(AU of untreated sample−AU of background control).
Following 18 hours incubation, the DNA was harvested and radioactivity was assessed by liquid scintillation counting (Packard Microplate Scintillation and Luminescence counter, Perkin Elmer Life and Analytical Science, Inc., Waltham, USA).

BaF3/wt-BCR-ABL cells = experiment: Subcutaneous BaF3/wt-BCR-ABL tumor model; assay type: in vivo; conditions: 25 (or 50) mg/kg twice per day via gavage; NSG mice
Protocol: (§3) 6- to 8-week-old male NSG mice were implanted subcutaneously with 1×10^7 BaF3/wt-BCR-ABL or 1×10^7 BaF3/T315I cells per mouse into the right flank. Five days after implantation mice were randomized into groups with a mean volume of approximately 100 mm^3. […] Tumor volume was measured every 2-3 days. Animals were sacrificed at day 12 and tumors embedded for histology.

BaF3/T315I cells = experiment: Subcutaneous BaF3/T315I tumor model; assay type: in vivo; conditions: 25 (or 50) mg/kg twice per day via gavage; NSG mice
Protocol: as §3

c-Kit = c-Kit (Homo sapiens, UniProt P10721); experiment: KinaseProfiler kinase activity assay; assay type: biochemical; set-up: purchased EMD Millipore Corp. (KinaseProfiler service)
Protocol: KinaseProfiler™ assays (EMD Millipore Corp. Billerica, Mass., USA) are radioligand binding assays with purified or partially-purified human kinases. Most of the KinaseProfiler™ assays are conducted in 20 mM MOPS, 1 mM EDTA, 0.01% Brij-35, 5% Glycerol, 0.1% b-mercaptoethanol, 1 mg/mL BSA. The assay involves the transfer of ^32P from γ-^32P-ATP to the target peptide, followed by washing and trapping of the labeled peptide on a filter. The concentration of γ-^32P-ATP used was at the established Km for ATP.

c-Kit (D816H) = c-Kit (D816H) (Homo sapiens, UniProt P10721, D816H); experiment: KinaseProfiler kinase activity assay; assay type: biochemical; set-up: purchased EMD Millipore Corp. (KinaseProfiler service)
Protocol: as §1, §2

T1 sequence (Q02763 23-1124 R849W): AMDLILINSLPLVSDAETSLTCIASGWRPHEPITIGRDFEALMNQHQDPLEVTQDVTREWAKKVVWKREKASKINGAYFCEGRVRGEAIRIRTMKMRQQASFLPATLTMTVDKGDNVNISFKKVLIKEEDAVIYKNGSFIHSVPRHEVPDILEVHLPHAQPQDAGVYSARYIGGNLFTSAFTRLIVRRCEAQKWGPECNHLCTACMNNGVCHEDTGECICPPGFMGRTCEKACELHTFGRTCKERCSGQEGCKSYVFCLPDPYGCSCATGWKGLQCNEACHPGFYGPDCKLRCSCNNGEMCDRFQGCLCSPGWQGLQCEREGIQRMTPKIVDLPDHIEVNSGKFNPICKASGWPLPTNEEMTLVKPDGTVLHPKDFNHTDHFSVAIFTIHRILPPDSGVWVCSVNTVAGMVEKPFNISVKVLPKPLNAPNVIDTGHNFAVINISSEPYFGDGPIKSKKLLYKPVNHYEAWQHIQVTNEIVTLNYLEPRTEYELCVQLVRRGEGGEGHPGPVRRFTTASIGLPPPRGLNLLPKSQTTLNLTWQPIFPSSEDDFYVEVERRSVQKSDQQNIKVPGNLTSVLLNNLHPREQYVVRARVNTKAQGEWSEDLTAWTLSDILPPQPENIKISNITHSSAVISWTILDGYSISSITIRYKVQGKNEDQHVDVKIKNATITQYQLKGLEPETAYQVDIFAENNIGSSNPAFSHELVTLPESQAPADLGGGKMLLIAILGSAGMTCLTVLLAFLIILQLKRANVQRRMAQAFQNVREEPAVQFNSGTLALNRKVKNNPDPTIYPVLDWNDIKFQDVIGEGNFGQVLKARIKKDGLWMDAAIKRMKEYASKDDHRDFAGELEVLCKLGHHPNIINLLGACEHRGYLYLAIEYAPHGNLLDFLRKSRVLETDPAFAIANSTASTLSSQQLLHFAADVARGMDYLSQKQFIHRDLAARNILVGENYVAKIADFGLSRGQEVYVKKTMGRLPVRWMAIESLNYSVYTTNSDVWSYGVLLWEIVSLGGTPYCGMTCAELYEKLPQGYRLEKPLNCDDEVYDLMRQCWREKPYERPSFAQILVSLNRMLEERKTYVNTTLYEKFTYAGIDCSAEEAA
Sequence of c-Kit (P10721 26-976): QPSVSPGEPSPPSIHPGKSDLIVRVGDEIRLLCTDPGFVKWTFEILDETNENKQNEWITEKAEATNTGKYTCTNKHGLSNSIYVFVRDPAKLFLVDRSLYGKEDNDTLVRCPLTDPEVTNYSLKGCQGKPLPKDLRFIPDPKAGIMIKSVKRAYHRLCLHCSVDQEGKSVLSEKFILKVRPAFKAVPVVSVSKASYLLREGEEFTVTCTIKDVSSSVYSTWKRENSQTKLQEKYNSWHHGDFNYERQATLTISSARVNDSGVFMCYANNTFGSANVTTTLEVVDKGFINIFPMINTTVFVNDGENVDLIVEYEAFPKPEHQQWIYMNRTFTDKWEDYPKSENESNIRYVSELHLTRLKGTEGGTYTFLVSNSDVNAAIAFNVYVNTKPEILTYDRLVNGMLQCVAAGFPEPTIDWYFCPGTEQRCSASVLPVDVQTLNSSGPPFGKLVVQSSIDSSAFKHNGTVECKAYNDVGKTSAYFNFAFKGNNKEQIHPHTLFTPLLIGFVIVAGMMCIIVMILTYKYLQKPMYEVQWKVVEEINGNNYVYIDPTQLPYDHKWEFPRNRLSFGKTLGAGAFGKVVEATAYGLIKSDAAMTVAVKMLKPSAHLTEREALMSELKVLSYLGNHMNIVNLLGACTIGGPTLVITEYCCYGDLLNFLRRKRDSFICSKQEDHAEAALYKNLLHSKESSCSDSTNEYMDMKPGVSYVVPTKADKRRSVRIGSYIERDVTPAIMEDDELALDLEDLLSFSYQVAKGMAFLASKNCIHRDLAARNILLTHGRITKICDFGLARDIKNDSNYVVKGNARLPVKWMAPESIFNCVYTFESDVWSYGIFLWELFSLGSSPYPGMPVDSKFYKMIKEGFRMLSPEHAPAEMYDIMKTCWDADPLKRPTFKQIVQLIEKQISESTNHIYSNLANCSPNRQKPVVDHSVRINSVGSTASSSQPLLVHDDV
Sequence of c-Kit (D816H) (P10721 26-976 D816H): as the sequence (P10721 26-976) above, with D791H counted along it
Sequence of Abl (P00519 whole entry): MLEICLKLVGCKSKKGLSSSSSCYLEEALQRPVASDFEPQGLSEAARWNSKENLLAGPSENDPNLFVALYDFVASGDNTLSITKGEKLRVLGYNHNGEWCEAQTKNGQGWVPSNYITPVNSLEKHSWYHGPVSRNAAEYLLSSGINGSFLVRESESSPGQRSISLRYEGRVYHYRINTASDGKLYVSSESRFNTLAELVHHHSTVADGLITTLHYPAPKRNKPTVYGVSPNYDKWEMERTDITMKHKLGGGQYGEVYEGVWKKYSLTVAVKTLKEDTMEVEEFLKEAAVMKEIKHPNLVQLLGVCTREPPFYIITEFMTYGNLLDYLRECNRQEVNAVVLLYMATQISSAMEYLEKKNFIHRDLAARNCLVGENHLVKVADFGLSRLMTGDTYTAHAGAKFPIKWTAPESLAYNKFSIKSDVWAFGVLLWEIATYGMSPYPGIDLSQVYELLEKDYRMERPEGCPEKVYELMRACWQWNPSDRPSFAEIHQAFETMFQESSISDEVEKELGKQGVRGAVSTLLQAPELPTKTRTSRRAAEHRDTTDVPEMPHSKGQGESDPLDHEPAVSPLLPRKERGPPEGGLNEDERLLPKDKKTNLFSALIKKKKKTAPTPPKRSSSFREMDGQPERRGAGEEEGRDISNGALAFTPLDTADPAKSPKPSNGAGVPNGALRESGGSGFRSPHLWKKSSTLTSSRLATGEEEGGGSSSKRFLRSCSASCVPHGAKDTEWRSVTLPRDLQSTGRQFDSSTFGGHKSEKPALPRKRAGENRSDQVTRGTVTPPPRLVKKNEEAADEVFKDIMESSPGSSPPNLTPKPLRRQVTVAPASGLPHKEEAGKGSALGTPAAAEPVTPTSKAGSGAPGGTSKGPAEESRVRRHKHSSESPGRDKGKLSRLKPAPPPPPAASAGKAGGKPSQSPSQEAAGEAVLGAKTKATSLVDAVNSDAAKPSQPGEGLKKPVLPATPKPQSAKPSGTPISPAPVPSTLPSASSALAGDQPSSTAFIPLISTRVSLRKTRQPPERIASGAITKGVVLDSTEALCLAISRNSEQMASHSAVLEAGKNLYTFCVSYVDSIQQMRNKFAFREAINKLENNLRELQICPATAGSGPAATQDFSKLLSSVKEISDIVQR
T2 sequence (Q02763 23-1124 Y897S): as the sequence (Q02763 23-1124 R849W) above, with W827R, Y875S counted along it

Molecule `Nc1nc(Nc2ccc3c(c2)CC[C@@H](N2CCCC2)CC3)nn1-c1cc2c(nn1)-c1ccccc1CCC2` [Compound A, 1-(6,7-dihydro-5H-benzo[6,7]cyclohepta[1,2-c]pyridazine-3-yl)-N^3-(7-(S)-(pyrrolidin-1-yl)-6,7,8,9-tetrahydro-5H-benzo[7]annulene-2-yl)-1H-1,2,4-triazole-3,5-diamine] has an IC50 (TEK(R849W)) of 22 nM, an IC50 (TEK(Y897S)) of 13 nM and an IC50 (Abl) of 51 nM. For the same molecule, the “inhibition range, Flt3 mutations” value [1] was 8 to 29 nM, the pIC50 [2] was 6.10 and the therapeutic window ([3]; investigated Ba/F3 cell lines, 48 hours) was 0.5 to 3 µM. The “induction of apoptosis at higher doses” value ([3]; ≧3 μM, all cell lines regardless of FLT3 status) was “massive induction of apoptosis”, the “cell death in proliferation assays” value [4] was “all cells are dead” and the “inhibition of wild type CML in vivo (tumor volume)” value (BaF3/wt-BCR-ABL cells) was “potentially inhibits”. For the same molecule, the “inhibition of T315I mutated CML in vivo (tumor volume)” value (BaF3/T315I cells) was “potentially inhibits”, the pIC50 (c-Kit) was 5.89 and the pIC50 (c-Kit (D816H)) was 8.10.
